One assay addresses T1, TNKS1 (Homo sapiens, UniProt O95271).
T1 construct: purchased BPS Bioscience, San Diego, USA 80579 (TNKS1 Histone Ribosylation Assay Kit)
T1 sequence (O95271 1-1327): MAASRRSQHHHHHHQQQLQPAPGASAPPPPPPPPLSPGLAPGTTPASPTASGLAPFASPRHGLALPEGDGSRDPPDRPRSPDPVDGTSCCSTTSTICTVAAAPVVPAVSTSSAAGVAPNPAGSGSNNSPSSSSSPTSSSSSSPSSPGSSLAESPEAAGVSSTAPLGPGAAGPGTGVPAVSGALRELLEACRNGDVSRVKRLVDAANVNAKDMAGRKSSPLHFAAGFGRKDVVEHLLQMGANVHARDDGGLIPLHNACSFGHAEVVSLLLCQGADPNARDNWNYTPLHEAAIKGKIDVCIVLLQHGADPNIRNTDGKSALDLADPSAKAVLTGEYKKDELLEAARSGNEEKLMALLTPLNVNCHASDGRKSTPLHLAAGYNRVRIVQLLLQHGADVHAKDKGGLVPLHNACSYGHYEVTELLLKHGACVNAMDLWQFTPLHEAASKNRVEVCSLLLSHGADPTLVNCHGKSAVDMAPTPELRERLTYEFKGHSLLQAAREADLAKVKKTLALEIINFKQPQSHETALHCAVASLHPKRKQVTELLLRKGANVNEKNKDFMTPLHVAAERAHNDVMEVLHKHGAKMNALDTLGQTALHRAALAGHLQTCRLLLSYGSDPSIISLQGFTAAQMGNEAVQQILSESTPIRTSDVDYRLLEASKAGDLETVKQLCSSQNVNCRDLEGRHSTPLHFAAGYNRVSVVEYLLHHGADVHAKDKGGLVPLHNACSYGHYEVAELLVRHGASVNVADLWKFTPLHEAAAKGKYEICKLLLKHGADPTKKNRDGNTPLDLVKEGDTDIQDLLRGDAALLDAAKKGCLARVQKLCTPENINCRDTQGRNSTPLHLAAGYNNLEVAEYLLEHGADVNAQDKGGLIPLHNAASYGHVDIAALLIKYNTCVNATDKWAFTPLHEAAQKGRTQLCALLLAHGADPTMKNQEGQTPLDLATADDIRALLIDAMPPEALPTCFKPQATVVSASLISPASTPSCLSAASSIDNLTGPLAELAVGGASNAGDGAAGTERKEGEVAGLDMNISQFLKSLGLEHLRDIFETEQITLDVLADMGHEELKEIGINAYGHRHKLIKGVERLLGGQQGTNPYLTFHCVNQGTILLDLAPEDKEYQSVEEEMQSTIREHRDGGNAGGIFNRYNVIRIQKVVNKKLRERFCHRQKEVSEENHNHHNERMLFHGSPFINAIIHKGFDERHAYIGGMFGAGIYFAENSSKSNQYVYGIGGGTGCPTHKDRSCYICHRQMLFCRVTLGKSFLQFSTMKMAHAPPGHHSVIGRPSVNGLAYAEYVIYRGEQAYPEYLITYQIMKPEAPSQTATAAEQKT
The experiment in a line: TNKS1 Assay B (auto-parsylation, [3H]-NAD+ SPA). Type of assay: biochemical. The settings on record: 6 nM TNKS1, auto-parsylation, over night at room temperature.

Assay [1] relates to HEK293 cells cotransfected with the FOP control vector. The assay is described as follows: HEK293 FOP assay (control reporter with non-functional TCF elements). Type of assay: cell-based. To be noted: Homo sapiens, 16 hours. The essentials: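 Compound series from 50 μM down to 15 nM, prediluted in DMSO then 50-fold into CAFTY buffer (pH 7.4, 2 mM Ca2+, 0.01% BSA), tested alongside TOP cells on a Geneticin-selected HEK293 FOP line whose TCF elements are replaced by a random sequence; recombinant human Wnt-3a applied at 2500-5 ng/ml.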

Counter-ions that a name gives are not always drawn. Some results are limits rather than exact numbers.

As usually defined, the IC50 is the concentration that inhibits the measured activity by half. Read a high IC50 as weaker potency in that assay. On TNKS1, `CNC(=O)c1[nH]cnc1C(=O)NC1CCC(C(=O)Nc2ccc(F)cc2Cl)CC1C` (racemic) [Example 39, N^4-{4-[(2-chloro-4-fluorophenyl)carbamoyl]-2-methylcyclohexyl}-N^5-methyl-1H-imidazole-4,5-dicarboxamide] showed an IC50 of 0.38 µM.

As for `Cc1c(C(C)N(C)C)cnc2c(C(=O)N[C@H]3CC[C@H](C(=O)Nc4ccc(F)cc4Cl)CC3)cnn12` (mixture of isomers) [Example 55, N-{trans-4-[(2-chloro-4-fluorophenyl)carbamoyl]cyclohexyl}-6-[1-(dimethylamino)ethyl]-7-methylpyrazolo[1,5-a]pyrimidine-3-carboxamide formic acid salt], the IC50 in assay [1] is ≥ 50 µM; on TNKS1, 0.74 µM.

With `O=C(NCCN1CCCCC1)c1nc[nH]c1C(=O)N[C@H]1CC[C@H](C(=O)Nc2ccc(F)cc2Cl)CC1` [Example 2, N^5-{trans-4-[(2-chloro-4-fluorophenyl)carbamoyl]cyclohexyl}-N^4-[2-(piperidin-1-yl)ethyl]-1H-imidazole-4,5-dicarboxamide], the IC50 in assay [1] is ≥ 50 µM; on TNKS1, 0.55 µM.

`CNC(C)c1cnc2c(C(=O)N[C@H]3CC[C@H](C(=O)Nc4ccc(F)cc4Cl)CC3)cnn2c1C` (stereo partly drawn) [Example 54, N-{trans-4-[(2-chloro-4-fluorophenyl)carbamoyl]cyclohexyl}-7-methyl-6-[1-(methylamino)ethyl]pyrazolo[1,5-a]pyrimidine-3-carboxamide formic acid salt]: the IC50 in assay [1] was ≥ 50 µM; against TNKS1, 0.46 µM.

Turning to `COCC(C)NC(=O)c1nc[nH]c1C(=O)N[C@H]1CC[C@H](C(=O)Nc2cc(N3CCOCC3)ccc2Cl)CC1` (stereo partly drawn) [Example 91, N^5-(trans-4-{[2-chloro-5-(morpholin-4-yl)phenyl]carbamoyl}cyclohexyl)-N^4-(1-methoxypropan-2-yl)-1H-imidazole-4,5-dicarboxamide], the IC50 in assay [1] was ≥ 50 µM; at TNKS1, 2.8 µM.

For the origin of these results see US20180148418A1, “AMIDO-SUBSTITUTED CYCLOHEXANE DERIVATIVES” (Bayer Pharma Aktiengesellschaft, priority 2015, published 2018).
